Structures can show the parent of a compound that is named as a salt.

These results are taken from patent US8569378B2, “p27 protein inducer” (Chugai Seiyaku Kabushiki Kaisha, priority 2007, dated 2013).

For one experiment, the system named is TNF-α. The experiment can be described thus: Measurement of TNF-α production inhibitory activity in LPS-stimulated THP-1 cells. The format is cell-based. The settings on record: Homo sapiens, overnight, TNF-α in supernatant by ELISA, Table 3. On the procedure:
TNF-α is an inflammatory cytokine. It plays an important role in the initiation of inflammation, particularly in rheumatism. The TNF-α production inhibitory activities of the compounds or salts listed in Table 3 below were measured as follows.
THP-1 human monocytic leukemia cells (ATCC) were suspended to a cell density of 5×10^5 cells/mL in RPMI 1640 medium supplemented with 5% inactivated fetal bovine serum, and this suspension was aliquoted into a 96-well round-bottomed tissue culture plate at 0.2 mL/well. A solution of the test substance in DMSO was added to the suspension to a final concentration of […] and the mixture was subjected to pretreatment at 37° C. for 60 minutes. After pretreatment, lipopolysaccharide (LPS) from E. coli 055:B5 was added to a final concentration of […] and the mixture was incubated overnight in a 37° C., 5% CO^2 incubator. Then, the culture supernatant was collected from each well, and the concentration of TNF-α in the supernatant was determined with a human TNF-α ELISA kit (catalog no. KHC3011, BIOSOURCE) according to the manufacturer's instructions. The test substance concentration (IC50) at which 50% inhibition was achieved was calculated from the measurement.
In general terms: ELISA stands for enzyme-linked immunosorbent assay.

Another experiment has as its system p27 protein. Kind of experiment: Quantification of p27 protein by ELISA (p27 protein-inducing activity, EC50). The format is cell-based, human. The conditions noted are these: NCI-H460 cells, 48 hours, p27 sandwich ELISA. As for the experimental part:
The p27 protein-inducing activities of the compounds or salts listed in Tables 1-1, 1-2 and 2 below were measured as follows.
Preparation of Cell Lysate:
NCI-H460 human non-small cell lung cancer cells (ATCC HTB-177) were plated in 6-well plates at 2×10^5 cells/well and incubated overnight. Then, the test substance was added to the medium to a final concentration of 10000 nmol/L, 3000 nmol/L, 100 nmol/L, 30 nmol/L, 10 nmol/L, 3 nmol/L, 1 nmol/L, 0.3 nmol/L, 0.1 nmol/L, 0.03 nmol/L or 0.01 nmol/L and the cells were incubated at 37° C. in 5% CO2 for 48 hours. 150 μL of Cell Lysis Buffer (catalog no. 9803, Cell Signaling) which had been diluted to 1-fold concentration (1 mM PMSF was added immediately before use) was added, and the mixture was allowed to stand on ice for 10 minutes. The Cell Lysis Buffer in which cells were lysed was collected together with cells with a scraper and transferred to a new tube. It was centrifuged at 15000 rpm for 10 minutes at 4° C. and the supernatant was then transferred to a new tube.
Quantification by Sandwich ELISA:
Anti-p27 monoclonal antibody (catalog no. 71-9600, Zymed) was diluted to 5 μg/mL in 50 mM carbonate coating buffer (0.4 g/L NaCO3, 0.73 g/L NaHCO3 and 0.04 g/L NaN3 in distilled water), and it was then added at 50 μL/well and allowed to stand overnight at 4° C. to bind the antibody. After washing three times with PBS, 200 μL of blocking solution (0.2% I-Block in PBS) was added to each well. After 1 hour of incubation at room temperature, washing with PBS-T (0.05% Tween 20 in PBS) was performed three times. The sample and recombinant p27 protein standard were serially diluted in Cell Lysis Buffer (catalog no. 9803, Cell Signaling) which had been diluted to 1-fold concentration (1 mM PMSF was added immediately before use), and it was then added at 100 μL/well. After 1 hour of incubation at room temperature, washing with 200 μL of PBS-T was performed three times. HRP-labeled anti-p27 antibody (product no. 610243, BD Transdution Laboratories) was diluted 1:2500 (i.e. to 0.1 μg/mL) in 0.2% I-Block/0.05% PBS-T, and it was then added at 100 μL/well. After 1 hour of incubation at room temperature, washing with 200 μL of PBS-T was performed three times. Chromogenic substrate solution (TMB One Solution, catalog no. G7431, Promega) was added at 100 μL/well and allowed to develop a color reaction at room temperature. After stopping the reaction with 50 μL of 1N H2SO4, the absorbance at 450 nm was measured.
Calculation of EC50 Values:
A standard response curve was generated by plotting the amount of p27 protein against the concentration of the test substance. The basal level of response was defined as 0%, while the plateau level where the induction of p27 protein had been maximized was defined as 100%. Finally, the test substance concentration at which 50% induction was achieved was calculated, and it was defined as EC50.

Experiment [1] deals with type II collagen-induced arthritis. The settings on record: mouse, in vivo.
Protocol: DBA/1JN mice (female, 8 weeks old, Charles River) were injected intradermally at the three sites of the base of the tail with 140 μL/mouse of a collagen gel prepared by mixing equal volumes of 0.3% aqueous bovine type II collagen solution (Collagen Technical Workshop) and complete Freund's adjuvant H37Ra (Difco). After 21 days, the mice were injected intradermally at the three sites of the back with 140 μL/mouse of a collagen gel prepared likewise. […] At every administration, the mice were treated at 0.04 mg/kg, 0.2 mg/kg, 1 mg/kg, 5 mg/kg or 25 mg/kg using 0.5% sodium carboxymethylcellulose as a vehicle. The mice treated with vehicle alone (i.e., the mice that were not treated with the test substance) were used as controls.
After the first collagen injection, arthritis score of each mouse was measured with time. The arthritis score was calculated by giving scores for both the toes and backs of all four paws of the mouse on the scale below and adding them together (the maximum possible total is 4 per paw and 16 per mouse).
Score 1: Moderate swelling

For the molecule `CNS(=O)(=O)Nc1cccc(Cc2c(C)c3cc(Cl)c(OC(=O)N(C)C)cc3oc2=O)c1` [Compound 1j-1-3-2, Dimethylcarbamic acid 3-(3-(N-methylsulfamoyl)aminobenzyl)-6-chloro-4-methyl-2-oxo-2H-1-benzopyran-7-yl ester], the half-inhibitory concentration (IC50) in the experiment on TNF-α stood at 1.86 nM. Also, it took 54 nM to reach a half-maximal effect in the experiment on p27 protein (Table 1-1) (EC50).

In turn, `Cc1c(Cc2cccc(NS(N)(=O)=O)c2F)c(=O)oc2cc(OC(=O)N(C)C)c(F)cc12` [Compound 1j-1-5-1, Dimethylcarbamic acid 3-{2-fluoro-3-(aminosulfonyl)aminobenzyl}-6-fluoro-4-methyl-2-oxo-2H-1-benzopyran-7-yl ester] registered a 50% inhibitory concentration (IC50) in the experiment on TNF-α of 0.93 nM. This molecule also returned an EC50 with p27 protein (Table 1-1) of 590 nM.

Turning to `CNS(=O)(=O)Nc1cc(Cc2c(C)c3ccc(OC(=O)N(C)C)cc3oc2=O)ccn1` [Compound 1j-1-10-2, Dimethylcarbamic acid 4-methyl-3-{2-(methylaminosulfonyl)-aminopyridin-4-ylmethyl}-2-oxo-2H-1-benzopyran-7-yl ester], in the experiment with TNF-α, the IC50 was found to be 10.3 nM. Besides, the EC50 in the experiment with p27 protein (Table 1-2) was 370 nM.

The molecule `CNS(=O)(=O)Nc1cc(Cc2c(C)c3cc(F)c(OC(=O)N(C)C)cc3oc2=O)ccn1` [Compound 1j-1-11-2, Dimethylcarbamic acid 4-methyl-3-{2-(methylaminosulfonyl)aminopyridin-4-ylmethyl}-6-fluoro-2-oxo-2H-1-benzopyran-7-yl ester] returned an IC50 in the experiment with TNF-α of 5.19 nM. The molecule further gave an EC50 with p27 protein (Table 1-2) of 330 nM.

In the experiment on TNF-α, `Cc1c(Cc2cccc(NS(N)(=O)=O)c2F)c(=O)oc2cc(Oc3ncccn3)ccc12` [Compound 1j-2-4-1, 3-{2-Fluoro-3-(aminosulfonyl)aminobenzyl}-4-methyl-7-(pyrimidin-2-yloxy)-2-oxo-2H-1-benzopyran] returned a half-maximal inhibitory concentration (IC50) of 25.9 nM. Besides, the EC50 in the experiment on p27 protein (Table 2) came out at 1840 nM.

With `CNS(=O)(=O)Nc1cccc(Cc2c(C)c3ccc(Oc4ncccn4)cc3oc2=O)c1F` [Compound 1j-2-4-2, 3-{2-Fluoro-3-(methylaminosulfonyl)aminobenzyl}-4-methyl-7-(pyrimidin-2-yloxy)-2-oxo-2H-1-benzopyran], the concentration for half-maximal inhibition (IC50) in the experiment on TNF-α was determined as 15.3 nM. In the experiment on p27 protein (Table 2), this molecule gave an EC50 of 730 nM.

In the experiment on TNF-α, `CNS(=O)(=O)Nc1cccc(Cc2c(CF)c3ccc(Oc4ncccn4)cc3oc2=O)c1F` [Compound 1j-2-4-2F, 3-{2-Fluoro-3-(methylaminosulfonyl)aminobenzyl}-4-fluoromethyl-7-(pyrimidin-2-yloxy)-2-oxo-2H-1-benzopyran] yielded an IC50 of 9.14 nM. Moreover, the response in the experiment on p27 protein (Table 2) was half-maximal at 530 nM (EC50).

Regarding `CNS(=O)(=O)Nc1cccc(Cc2c(C)c3ccc(Oc4ncccn4)cc3oc2=O)c1F` [Compound 1j-2-4-2Na, 3-{2-fluoro-3-(methylaminosulfonyl)aminobenzyl}-4-methyl-7-(pyrimidin-2-yloxy)-2-oxo-2H-1-benzopyran sodium salt], in experiment [1], the “type II collagen-induced arthritis (arthritis score) compared to the control group” value is on record as “suppressed” and the “type II collagen-induced arthritis (arthritis score), dose dependence” value is “dose-dependently suppressed”.

`CNS(=O)(=O)Nc1cccc(Cc2c(C)c3cc(F)c(Oc4ncccn4)cc3oc2=O)c1F` [Compound 1j-2-5-2, 3-{2-Fluoro-3-(methylaminosulfonyl)aminobenzyl}-4-methyl-7-(pyrimidin-2-yloxy)-6-fluoro-2-oxo-2H-1-benzopyran]: the 50% inhibitory concentration (IC50) with TNF-α came to 14.9 nM. The molecule also gave an EC50 in the experiment on p27 protein (Table 2) of 417 nM.

Consider `Cc1c(Cc2cccc(NS(N)(=O)=O)c2F)c(=O)oc2cc(Oc3nccs3)ccc12` [Compound 1j-3-4-1, 3-{2-Fluoro-3-(aminosulfonyl)aminobenzyl}-4-methyl-7-(thiazol-2-yloxy)-2-oxo-2H-1-benzopyran], for which, in the experiment on TNF-α, the half-inhibitory concentration (IC50) was 7.36 nM. Moreover, the response in the experiment on p27 protein (Table 1-2) was half-maximal at 425 nM (EC50).

In the experiment with TNF-α, `CNS(=O)(=O)Nc1cccc(Cc2c(C)c3ccc(Oc4nccs4)cc3oc2=O)c1F` [Compound 1j-3-4-2, 3-{2-Fluoro-3-(methylaminosulfonyl)aminobenzyl}-4-methyl-7-(thiazol-2-yloxy)-2-oxo-2H-1-benzopyran] registered a half-maximal inhibitory concentration (IC50) of 1.84 nM. This molecule also came in with an EC50 in the experiment with p27 protein (Table 1-2) of 267 nM.

Consider `CNS(=O)(=O)Nc1nccc(Cc2c(C)c3cc(C)c(Oc4nccs4)cc3oc2=O)c1F` [Compound 1j-3-19-2, 3-{2-(Methylaminosulfonyl)amino-3-fluoropyridin-4-ylmethyl}-4-methyl-6-methyl-7-(thiazol-2-yloxy)-2-oxo-2H-1-benzopyran], for which, in the experiment with p27 protein (Table 1-2), the midpoint of the response, the EC50, lay at 19 nM.

Consider `CNS(=O)(=O)Nc1cc(Cc2c(C)c3cc(C)c(Oc4nccs4)cc3oc2=O)ccn1` [Compound 1j-3-20-2, 3-{2-(Methylaminosulfonyl)aminopyridin-4-ylmethyl}-4-methyl-6-methyl-7-(thiazol-2-yloxy)-2-oxo-2H-1-benzopyran], for which the midpoint of the response with p27 protein (Table 1-2), the EC50, lay at 100 nM.

With `CNS(=O)(=O)Nc1nccc(Cc2c(C)c3cc(C)c(Oc4nccs4)cc3oc2=O)c1Cl` [Compound 1j-3-44-2, 3-{2-(Methylaminosulfonyl)amino-3-chloropyridin-4-ylmethyl}-4-methyl-6-methyl-7-(thiazol-2-yloxy)-2-oxo-2H-1-benzopyran], the half-maximal effective concentration (EC50) in the experiment on p27 protein (Table 1-2) was 202 nM.

Turning to `CNC(=O)CS(=O)(=O)Nc1cccc(Cc2c(C)c3cc(Cl)c(OC(=O)N(C)C)cc3oc2=O)c1` [Compound 1o-1-3-2, Dimethylcarbamic acid 3-(3-methylcarbamoylmethanesulfonylamino-benzyl)-6-chloro-4-methyl-2-oxo-2H-1-benzopyran-7-yl ester], in the experiment on p27 protein (Table 1-1), it took 290 nM to reach a half-maximal effect (EC50).

For the molecule `Cc1c(Cc2cccc(NS(=O)(=O)CC(=O)N(C)C)c2)c(=O)oc2cc(OC(=O)N(C)C)c(Cl)cc12` [Compound 1o-1-3-3, Dimethylcarbamic acid 3-(3-dimethylcarbamoylmethanesulfonylamino-benzyl)-6-chloro-4-methyl-2-oxo-2H-1-benzopyran-7-yl ester], in the experiment with p27 protein (Table 1-1), the 50% effective concentration (EC50) worked out at 190 nM.

Molecule `CNC(=O)CS(=O)(=O)Nc1cccc(Cc2c(C)c3ccc(Oc4nccs4)cc3oc2=O)c1F` [Compound 1o-3-4-2, 2-{2-Fluoro-3-[4-methyl-2-oxo-7-(thiazol-2-yloxy)-2H-1-benzopyran-3-ylmethyl]phenylsulfamoyl}-N-methyl-acetamide] gave a 50% effective concentration (EC50) in the experiment on p27 protein (Table 2) of 2660 nM. This lies in the single-digit micromolar range.

By IC50 is commonly meant the concentration that gives 50% inhibition. A word on the EC50: it is the concentration that produces a half-maximal response.
